Laboratory results reported in patent US9676820B2, “Method for inhibiting proliferation of high LIX1L-expressing tumor cell, and tumor cell proliferation-inhibiting peptide” (National University Corporation Hamamatsu University School …, priority 2013, dated 2017).

Columns and labels:
Type in all cases: cell-based
K562 strain = test: Viable cell counts (Trypan blue staining), K562 strain; conditions: 5 μM peptide, vs untreated
Method: Specifically, cells plated such that the density thereof became 1×10^4 cells/3.5 cm well for one plate (6 wells/plate) for each cell strain were cultured for one night in a culture solution having the same composition as those of the culture solutions described in the reference examples. After culturing of 1 well out of the 6 wells was completed, Trypan blue staining was performed on the 1 well, and viable cell counts were counted. The remaining 5 wells were cultured after exchanging the culture solution with a liquid mixture of a Lipofectamine (registered trademark) reagent (12.5 μL/well) and a culture solution (2 mL/well) of which the shRNA concentration became 2.5 μg/well. Then, Trypan blue staining was performed on 1 well 24 hours after the exchange of a culture medium, 1 well 48 hours after the exchange of a culture medium, and the remaining 1 well 72 hours after the exchange of a culture medium, and the viable cell counts were counted. As a control, the viable cell counts were measured (untreated) by performing the culturing similarly to the above except that a culture medium was exchanged with a culture solution to which no shRNA was added.
Specifically, the viable cell counts were measured after culturing the cells similarly to Example 1 except that a 5 μM culture solution containing a control peptide, a peptide 1, or a peptide 2 was used instead of the culture solution (2 mL/well) of which the shRNA concentration was 2.5 μg/well. The viable cell counts were measured (untreated) by performing the culturing similarly to Example 1 using a culture solution containing no peptide 2, as a control.

136th tyrosine of LIX1L = target: T1, 136th tyrosine of LIX1L (Homo sapiens, UniProt Q8IVB5); test: Tyrosine phosphorylation of LIX1L by immunoprecipitation and Western blotting in 293 FLG/LIX1L cells; conditions: cultured 14 days with peptide
T1 construct: expressed in transfected cells
T1 sequence (Q8IVB5 with tags, fused parts or gaps): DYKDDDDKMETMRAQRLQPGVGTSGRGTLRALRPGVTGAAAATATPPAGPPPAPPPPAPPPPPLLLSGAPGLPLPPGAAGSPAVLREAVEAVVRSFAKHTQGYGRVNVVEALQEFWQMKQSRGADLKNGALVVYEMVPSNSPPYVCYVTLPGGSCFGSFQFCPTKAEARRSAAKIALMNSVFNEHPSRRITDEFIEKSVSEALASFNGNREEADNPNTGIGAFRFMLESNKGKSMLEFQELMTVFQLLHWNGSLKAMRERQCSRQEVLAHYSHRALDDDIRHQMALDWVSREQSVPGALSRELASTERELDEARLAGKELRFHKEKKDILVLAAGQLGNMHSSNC
Method: First, a cell strain (293 FLG) in which only FLAG was forcibly expressed, a cell strain (293 FLG/LIX1L) in which a LIX1L protein with a FLAG tag was forcibly expressed, and a cell strain (293 FLG/LIX1L/PY136) in which a LIX1L protein with a FLAG tag for adding a peptide thereto was forcibly expressed were prepared through the same method as Reference Example 5, and were cultured and proliferated.
Next, the 293 FLG/LIX1L/PY136 cells were cultured for 14 days in a culture solution containing a peptide 1 through the same method as that in Example 3. The 293 FLG cells and the 293 FLG/LIX1L cells were cultured for 14 days in the same manner as above using a culture solution containing no peptide 1.
Next, the 293 FLG cells, the 293 FLG/LIX1L cells, and the 293 FLG/LIX1L/PY136 cells were respectively cultured in 10% FCS-containing DMEM culture media to which Hygromycin B at […] was added, for 14 days. Then, the cultured cells were separated into nuclear fractions and cytoplasm fractions using Nuclear/Cytosol Fractionation Kit (manufactured by BioVison, Inc.). Immunoprecipitation was performed on both the obtained fractions using an anti-FLAG antibody (manufactured by Sigma-Aldorich Co. LLC.) and an agarose-binding protein A (manufactured by Sigma-Aldorich Co. LLC.), protein separation was performed thereon through 12% SDS-PAGE, and the fractions were transferred to a film. […]

HL-60 strain = test: MTT assay, HL-60 strain
Method: (§1) Specifically, first, cells plated in a 96-well microplate such that the density thereof became 5×10^3 cells/well were cultured for one night in a culture solution having the same composition as those in the reference examples. Thereafter, the culture solution was exchanged with 100 μL of a culture solution of which the concentration of peptides is 0 μM to 100 μM for culturing for 72 hours. After the culturing, an MTT-containing PBS solution was added to the culture solution, and the mixture was incubated for 4 hours. Then, formazan which was generated by putting 100 μL of isopropanol (containing 34 (v/v) % of hydrochloric acid) into each of the wells was dissolved. The absorbance of each of the wells of the microplate at 570 nm was measured using a microplate reader. As controls, culturing was performed in the same manner except that no peptide was added to the strains, an MTT assay was performed thereon, and the absorbance at 570 nm was measured (untreated).
(§2) In the method for measuring the viable cell counts, cells were cultured for 3 days similarly to Example 1 except that a 25 μM (10 μM for an HL-60 strain, a K562 strain, and a U937 strain) culture solution containing a control peptide or a peptide 1 was used, and the viable cell counts were measured. As a comparison, culturing was performed similarly to the above using a culture solution containing no peptide, and the viable cell counts were measured (untreated).
(§3) In addition, in the method for performing an MTT assay, cells were cultured for 72 hours similarly to Example 2 except that a peptide to be added to a strain was set to a control peptide or a peptide 1 at 25 μM (10 μM for an HL-60 strain, a K562 strain, and a U937 strain), an MTT assay was performed thereon, and the absorbance at 570 nm was measured. As a comparison, culturing was performed similarly to the above using a culture solution containing no peptide, and the MTT assay was performed thereon (untreated).

NUGC-4 strain = test: MTT assay, NUGC-4 strain
Method: as §1, with “Thereafter, the culture solution was exchanged with 100 μL of a culture solution of which the concentration of peptides is 0 μM to 100 μM for culturing for 72 hours.” left out
as §2, §3
Specifically, the cells were cultured for 72 hours similarly to Example 2 except that a peptide to be added to a cell was set to a peptide 1, 2, 5, or 6, MTT assays were performed thereon, and the absorbance at 570 nm was measured. As a comparison, culturing was performed similarly to the above using a culture solution containing no peptide, and the MTT assay was performed thereon (untreated).
Specifically, the cells were cultured for 72 hours similarly to Example 2 except that peptides to be added to cell strains were set to peptides 7 to 14, MTT assays were performed thereon, and the absorbance at 570 nm was measured. […]
Specifically, the cells were cultured for 72 hours similarly to Example 2 except that a peptide to be added to a cell strain was set to a peptide 15 or 16, an MTT assay was performed thereon, and the absorbance at 570 nm was measured. […]

SMILES: CC(C)[C@H](NC(=O)[C@H](Cc1ccc(O)cc1)NC(=O)[C@H](CS)NC(=O)[C@@H](NC(=O)[C@H](Cc1ccc(O)cc1)NC(=O)[C@@H]1CCCN1C(=O)[C@@H]1CCCN1C(=O)[C@H](CO)NC(=O)[C@H](CC(N)=O)NC(=O)[C@H](CO)NC(=O)[C@@H]1CCCN1C(=O)CCCCCNC(=O)[C@H](CCCNC(=N)N)NC(=O)[C@H](CCCNC(=N)N)NC(=O)[C@H](CCCNC(=N)N)NC(=O)[C@H](CCC(N)=O)NC(=O)[C@H](CCCNC(=N)N)NC(=O)[C@H](CCCNC(=N)N)NC(=O)[C@H](CCCCN)NC(=O)[C@H](CCCCN)NC(=O)[C@H](CCCNC(=N)N)NC(=O)CNC(=O)[C@@H](N)Cc1ccc(O)cc1)C(C)C)C(N)=O [peptide 1, YGRKKRRQRRR-X-PSNSPPYVCYV-NH2]
- viable cell counts (K562 strain; after 72 hours): very small
- viable cell counts (K562 strain; after culturing for 24 hours): decreased
- phosphorylation of the 136th tyrosine of LIX1L (136th tyrosine of LIX1L; cytoplasm fraction of 293 FLG/LIX1L/PY136 cell): significantly inhibited
- phosphorylation of the 136th tyrosine of LIX1L (136th tyrosine of LIX1L; nuclear fraction of 293 FLG/LIX1L/PY136 cell): slightly inhibited
- concentration at which a dominant effect of inhibiting the cell proliferation was recognized (HL-60 strain; MTT assay, 72 hours): greater than or equal to 6.25 μM
- cell proliferation (viable cell counts and MTT assay) (HL-60 strain; peptide 10 μM, 3 days / 72 hours): inhibited
- cell proliferation (MTT assay, absorbance at 570 nm) (NUGC-4 strain; 72 hours, peptide concentrations up to 250 μM): inhibited
- cell proliferation (viable cell counts and MTT assay) (NUGC-4 strain; peptide 25 μM, 3 days / 72 hours): not inhibited
